{
  "source": "patent US9623008B2",
  "about": "“Targeting abnormal DNA repair in therapy-resistant breast and pancreatic cancers” (STC.UNM, priority 2012, dated 2017)",
  "format_in_all_cases": "cell-based",
  "key": {"[1]": {"tested_on": "MCF7 cells following siRNA knockdown of Ku70", "assay": "Colony survival assay, MCF7 after siRNA knockdown of Ku70", "conditions": "Ku70 knockdown versus siRNA control, 1 μmol/L, 10-day growth", "description": "(§1) Cells were seeded at a density of 1,000 cells per well in methylcellulose-based medium in the presence of DNA ligase I/III inhibitor, L67 (0.5 μmol/L; ref. 10); PARP inhibitor, ABT888 (0.125 μmol/L); or L67 (0.5 μmol/L) and ABT888 (0.125 μmol/L) for approximately 10 days. Colonies were stained with 2-(4-iodophenyl)-3-(4-nitrophenyl)-5-phenlytetrazolium chloride (1 mg/mL) for 16 to 24 hours before evaluation. Vital colonies were counted with an automated image analysis system (Omincon FAS IV, BIOSYS GmbH). Experiments were conducted at least 3 times, and results are representative of the mean of 3 independent experiment ±SEM.\nTarget plus SMART pool siRNA oligonucleotides for G22P1, DNA ligase III, and Ku70 mRNAs were purchased from Dharmacon RNA Technologies. The oligonucleotides were transiently transfected into cells with Amaxa Nucleofector Kit V (VCA-1003) in Nucleofector II Amaxa Biosystems. For transfection, […] of 20 μmol/L siRNA was used per 2×10^6 cells. […] Cells were harvested for Western blotting 72 hours after transfection. siRNA nontargeting pool (Dharmacon RNA Technologies) was used as a control."}, "breast cancer cell lines": {"tested_on": "breast cancer cell lines", "assay": "MTT cell proliferation assay, breast cancer cell lines", "conditions": "single agents, all the breast cancer cell lines, 72 hours; read-out: IC50, growth and viability", "description": "(§2) Cells were grown in 96-well plates with DNA ligase I/III inhibitor L67 (up to 60 μmol/L) and/or the PARP inhibitor ABT888 (up to 80 μmol/L) for 72 hours. Approximately 20 hours prior to evaluation, MTT labeling reagent (MTT in PBS; Roche) was added to each well. After incubating for 4 hours with the MTT labeling reagent, solubilization solution (10% SDS in 0.01 mol/L HCl; Roche) was added to solubilize the formazan salt crystals. The results were spectrophotometrically quantified by a VersaMax Microplate Reader at a wavelength of 550 nm and a reference wavelength of 650 nm. The effect of combining the DNA repair inhibitors was analyzed by determining the combination index (CI) described by Chou and Talalay (18, 19) with Calcusyn software (version 2.0; Biosoft). This calculation takes into account of both potency (median dose, Dm or IC50) and the shape of the dose-effect curve (the m value) to calculate the CI. L67 and ABT888 were combined at fixed ratios of doses that corresponded to 0.0001, 0.001, 0.005, 0.01, 0.05, 0.1, 0.5, 1, and 10 times the individual IC50 values. Synergy, additivity, and antagonism are defined as CI<1, CI ¼ 1, and CI>1, respectively."}, "MCF10A": {"tested_on": "MCF10A", "assay": "MTT cell proliferation assay, MCF10A", "conditions": "single agents, 72 hours, read-out: IC50, growth", "description": "as §2"}, "[2]": {"tested_on": "tumorigenic cell lines (MCF7, TAM1, TAM2, TAM3, LTLT)", "assay": "Colony survival assay, MCF7 and therapy-resistant derivatives", "conditions": "L67 0.5 μmol/L or ABT888 0.125 μmol/L alone, 10-day growth, compared with MCF10A", "description": "as §1"}},
  "note": "pIC50: −log10 of the molar value. “Also recorded” adds a separate entry of the source. Read-outs that look alike come from different tables or passages of the source.",
  "data": [
    {"smiles": "CC/C(=C(\\c1ccccc1)c1ccc(OCCN(C)C)cc1)c1ccccc1", "note": "[tamoxifen]", "values": [
      {"measurement": "sensitivity (colony survival)", "setting": "[1]", "value": "decreased sensitivity"}
    ]},
    {"smiles": "Cc1c(Br)cc(NCC(=O)NN=Cc2cc([N+](=O)[O-])ccc2O)cc1Br", "note": "[L67]", "values": [
      {"measurement": "pIC50", "setting": "breast cancer cell lines", "value": "~5.22"},
      {"measurement": "pIC50", "setting": "MCF10A", "value": "~5.22"},
      {"measurement": "colony survival, inhibitor alone", "setting": "[2]", "value": "small reductions; also recorded: little effect"}
    ]},
    {"smiles": "N#Cc1ccc(C(c2ccc(C#N)cc2)n2cncn2)cc1", "note": "[letrozole]", "values": [
      {"measurement": "sensitivity (colony survival)", "setting": "[1]", "value": "decreased sensitivity"}
    ]},
    {"smiles": "C[C@]1(c2nc3c(C(N)=O)cccc3[nH]2)CCCN1", "note": "[ABT888, Veliparib]", "values": [
      {"measurement": "pIC50", "setting": "breast cancer cell lines", "value": "~5.10"},
      {"measurement": "pIC50", "setting": "MCF10A; Homo sapiens, MCF-10A", "value": "~5.00"},
      {"measurement": "colony survival, inhibitor alone", "setting": "[2]", "value": "small reductions"}
    ]}
  ]
}
